Results from US20250090699A1, “FAP TARGETING CYCLIC PEPTIDES AND CONJUGATES THEREOF” (Novartis AG, priority 2023, published 2025).
Where a name gives a salt, the structure may show the parent alone. Starred links: 1 amine or outer side, 2 acyl side, 3 side chain; linkers in the order of their positions; H or OH if unused. Non-standard residues stand in square brackets, D forms with d. Residues, ends and D or L forms follow the SMILES beside them. Groups on a side chain read outwards from the residue. *: point of attachment. F4(amBAlaDOTALu) = lutetium complex of (S)-2,2',2''-(10-(2-((3-((4-(2-amino-2-carboxyethyl)benzyl)amino)-3-oxopropyl)amino)-2-oxoethyl)-1,4,7,10-tetraazacyclododecane-1,4,7-triyl)triacetic acid (Phe with 4-aminomethyl-βAla-DOTA-Lu), O=C([O-])CN1CCN(CC(=O)[O-])CCN(CC(=O)NCCC(=O)NCc2ccc(C[C@H](N[*:1])C(=O)[*:2])cc2)CCN(CC(=O)[O-])CC1.[Lu+3]; X9 = O=C(O)CN1CCN(CC(=O)O)CCN([C@H](CCC(=O)*)C(=O)O)CCN(CC(=O)O)CC1; F(4OEtNHRDOTAGA-Lu) = Phe with 4-O-ethyl-NH-DOTAGA, Lu complex; DOTA = O=C(O)CN1CCN(CC(=O)O)CCN(CC(=O)*)CCN(CC(=O)O)CC1; Trp(7-OMe) = COc1cccc2c(C[C@H](N)C(=O)O)c[nH]c12; Piperazinyl(4-CH2COOH) = O=C(O)CN1CCN(*)CC1; AEF = NCCOc1ccc(C[C@H](N)C(=O)O)cc1; NMeF = CN[C@@H](Cc1ccccc1)C(=O)O; Ahp(2) = CCCCC[C@H](N)C(=O)O; CO = O=C([*:1])[*:2]

Legend:
mouse FAP [1] = molecular target: T1, mouse FAP (Mus musculus, UniProt P97321); experiment: Surface plasmon resonance (SPR) for peptide affinity, mouse FAP; assay type: binding
T1 construct: biotinylated His, Avi tag, mouse FAP (26-761, FAP-M82Q5); His; Avi tag (biotinylated); purchased AcroBiosystems FAP-M82Q5
T1 sequence (P97321 26-761): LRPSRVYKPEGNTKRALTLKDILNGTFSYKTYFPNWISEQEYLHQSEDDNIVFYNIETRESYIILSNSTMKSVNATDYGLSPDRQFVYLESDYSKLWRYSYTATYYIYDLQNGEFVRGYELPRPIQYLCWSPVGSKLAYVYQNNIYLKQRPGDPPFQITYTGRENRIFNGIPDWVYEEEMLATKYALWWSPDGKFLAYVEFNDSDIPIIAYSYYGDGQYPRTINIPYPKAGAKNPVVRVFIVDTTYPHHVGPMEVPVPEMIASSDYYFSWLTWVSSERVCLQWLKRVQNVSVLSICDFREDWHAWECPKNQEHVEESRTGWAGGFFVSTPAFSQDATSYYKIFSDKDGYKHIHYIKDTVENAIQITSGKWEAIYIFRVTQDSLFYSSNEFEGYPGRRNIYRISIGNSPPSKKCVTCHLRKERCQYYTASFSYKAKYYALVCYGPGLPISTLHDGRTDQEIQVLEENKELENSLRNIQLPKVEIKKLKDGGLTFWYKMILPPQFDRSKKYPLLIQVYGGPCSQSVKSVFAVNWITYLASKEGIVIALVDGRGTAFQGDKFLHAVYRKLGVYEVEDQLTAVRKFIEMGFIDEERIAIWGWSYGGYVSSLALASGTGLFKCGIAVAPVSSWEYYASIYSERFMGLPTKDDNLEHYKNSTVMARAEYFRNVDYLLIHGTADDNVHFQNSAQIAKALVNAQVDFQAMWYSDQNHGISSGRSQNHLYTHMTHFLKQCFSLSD
Method in brief: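 Biotinylated His/Avi-tagged FAP ectodomains (human 26-760, mouse 26-761) captured or immobilized on Biacore sensor chips; peptides run at 25 °C in HBS-EP+ pH 7.6 with 2% DMSO, single-cycle kinetics, 8 concentrations. KD from 1:1 binding-model fit of sensorgrams.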

human FAP = molecular target: T2, human FAP (Homo sapiens, UniProt Q12884); experiment: Enzymatic FAP competition assay (Z-Gly-Pro-AMC fluorescence), human FAP; assay type: biochemical; conditions: read-out: h. FAP, Enz., IC50
T2 construct: the biotinylated His, Avi tag, human FAP (26-760, FAP-H82Q6); His; Avi tag (biotinylated); purchased AcroBiosystems FAP-H82Q6
T2 sequence (Q12884 26-760): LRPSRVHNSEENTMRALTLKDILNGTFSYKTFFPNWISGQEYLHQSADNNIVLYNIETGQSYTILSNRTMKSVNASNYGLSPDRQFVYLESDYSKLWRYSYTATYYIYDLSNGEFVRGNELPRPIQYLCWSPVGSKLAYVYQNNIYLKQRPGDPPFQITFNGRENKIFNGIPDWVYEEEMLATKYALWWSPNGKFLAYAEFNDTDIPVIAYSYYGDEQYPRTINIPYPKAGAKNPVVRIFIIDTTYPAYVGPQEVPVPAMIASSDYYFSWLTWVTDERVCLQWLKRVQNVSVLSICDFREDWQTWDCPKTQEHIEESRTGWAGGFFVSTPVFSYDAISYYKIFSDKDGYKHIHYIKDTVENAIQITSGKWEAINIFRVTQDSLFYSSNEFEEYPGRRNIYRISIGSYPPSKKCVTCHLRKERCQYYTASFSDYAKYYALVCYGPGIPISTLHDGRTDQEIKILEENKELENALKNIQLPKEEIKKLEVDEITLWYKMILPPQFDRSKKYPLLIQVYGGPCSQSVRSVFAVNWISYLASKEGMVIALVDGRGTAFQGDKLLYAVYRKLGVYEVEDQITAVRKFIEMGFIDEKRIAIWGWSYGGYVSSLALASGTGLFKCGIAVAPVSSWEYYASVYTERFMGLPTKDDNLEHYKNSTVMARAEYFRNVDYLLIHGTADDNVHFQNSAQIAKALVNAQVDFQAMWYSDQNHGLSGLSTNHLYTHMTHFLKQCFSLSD
Method in brief: (§1)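 Biotinylated His/Avi-tagged FAP ectodomain (human 26-760, mouse 26-761) at 0.01 nM, preincubated 24 h with peptides (14 concentrations, up to 1 μM) in pH 7.5 phosphate, 150 mM NaCl, 0.05% Tween20, 1% DMSO. Then 50 μM Z-Gly-Pro-AMC, 4 h at 22-24° C; AMC fluorescence (380/460 nm) gave IC50 from duplicate points.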

mouse FAP [2] = molecular target: T1, mouse FAP; experiment: Enzymatic FAP competition assay (Z-Gly-Pro-AMC fluorescence), mouse FAP; assay type: biochemical; conditions: read-out: m. FAP, Enz., IC50
Method in brief: as §1

Kd (mouse FAP [1])	IC50 (human FAP)	IC50 (mouse FAP [2])	Molecule
0.188 nM	0.071 nM	0.178 nM	CCCCC[C@@H]1NC(=O)[C@H](Cc2ccc(OCCN)cc2)NC(=O)[C@H](Cc2ccccc2)N(C)C(=O)CNC(=O)CNC(=O)[C@H]2CCCN2C(=O)[C@H](CC(=O)O)NC(=O)[C@H](CCCCNC(=O)N2CCN(CC(=O)O)CC2)NC(=O)CNC(=O)[C@H](Cc2c[nH]c3ccccc23)NC1=O [Example A6, 2-((9S,12S,15S,18S,24S,27S,32aR)-18-((1H-indol-3-yl)methyl)-12-(4-(2-aminoethoxy)benzyl)-9-benzyl-24-(4-(4-(carboxymethyl)piperazine-1-carboxamido)butyl)-8-methyl-1,4,7,10,13,16,19,22,25,28-decaoxo-15-pentyldotriacontahydropyrrolo[1,2-a][1,4,7,10,13,16,19,22,25,28]decaazacyclotriacontin-27-yl)acetic acid TFA salt] (cyclo([AEF][Ahp(2)]WGK([CO-Piperazinyl(4-CH2COOH)])D[dP]GG[NMeF]))
< 0.01 nM	0.007 nM	0.027 nM	Gly-Gly-NMePhe-F(4OEtNHRDOTAGA-Lu)-Ahp-Trp-Gly-Tyr-Asp-D-Pro (cyclo(GG[NMeF][F(4OEtNHRDOTAGA-Lu)][Ahp(2)]WGYD[dP]); also: Lu complex of DOTAGA) [Example C31]
0.162 nM	0.065 nM	0.3 nM	CCCCC[C@@H]1NC(=O)[C@H](Cc2ccc(O)cc2)NC(=O)[C@H](Cc2ccccc2)N(C)C(=O)CNC(=O)CNC(=O)[C@H]2CCCN2C(=O)[C@H](CC(=O)O)NC(=O)[C@H](Cc2ccc(O)cc2)NC(=O)CNC(=O)[C@H](Cc2c[nH]c3c(OC)cccc23)NC1=O [Example A61, Gly-Gly-NMePhe-Tyr-Ahp-W(7OMe)-Gly-Tyr-Asp-D-Pro] (cyclo([Ahp(2)][Trp(7-OMe)]GYD[dP]GG[NMeF]Y))
0.119 nM	0.019 nM	0.118 nM	CCCCC[C@@H]1NC(=O)[C@H](Cc2ccc(OCCNC(=O)CC[C@H](C(=O)O)N3CCN(CC(=O)O)CCN(CC(=O)O)CCN(CC(=O)O)CC3)cc2)NC(=O)[C@H](Cc2ccccc2)N(C)C(=O)CNC(=O)CNC(=O)[C@H]2CCCN2C(=O)[C@H](CC(=O)O)NC(=O)[C@H](Cc2ccc(O)cc2)NC(=O)CNC(=O)[C@H](Cc2c[nH]c3ccccc23)NC1=O [Example B30, Gly-Gly-NMePhe-F(4OEtNHRDOTAGA)-Ahp-Trp-Gly-Tyr-Asp-D-Pro] (cyclo([AEF](X9)[Ahp(2)]WGYD[dP]GG[NMeF]))
0.033 nM	0.01 nM	0.024 nM	Gly-Gly-NMePhe-F4(amBAlaDOTALu)-Ahp-Trp-Gly-Tyr-Asp-D-Pro (cyclo(GG[NMeF][F4(amBAlaDOTALu)][Ahp(2)]WGYD[dP]); also: Lu complex) [Example C10]

Molecule	Kd (mouse FAP [1])	IC50 (human FAP)	IC50 (mouse FAP [2])
CCCCC[C@@H]1NC(=O)[C@H](Cc2ccc(OCCNC(=O)CN3CCN(CC(=O)O)CCN(CC(=O)O)CCN(CC(=O)O)CC3)cc2)NC(=O)[C@H](Cc2ccccc2)N(C)C(=O)CNC(=O)CNC(=O)[C@H]2CCCN2C(=O)[C@H](CC(=O)O)NC(=O)[C@H](Cc2ccc(O)cc2)NC(=O)CNC(=O)[C@H](Cc2c[nH]c3ccccc23)NC1=O [Example B23, Gly-Gly-NMePhe-F(4OEtNHDOTA)-Ahp-Trp-Gly-Tyr-Asp-D-Pro, TFA salt] (cyclo([AEF](DOTA)[Ahp(2)]WGYD[dP]GG[NMeF]))	0.077 nM	0.012 nM	0.059 nM
